Assay results as given in ChEMBL document CHEMBL5614396, “Structure-Activity Relationship Studies in Benzothiadiazoles as Novel Vaccine Adjuvants” (J Med Chem, 2024).
The source made the active and inactive calls. No cut-off for these calls is given here.

What was measured:
[1] = system: Mus musculus; experiment: Vaccine adjuvant activity against ovalbumin-immunized BALB/c mouse assessed as increase in anti-OVA specific IgG titer in serum at 200 nmol, im co-administered with ovalbumin on day 0 and day 21 and measured on day 28 by ELISA; type: functional, organism-based; details: time 29.0 day
[2] = system: THP-1; experiment: Vaccine adjuvant activity in human THP-1 cells expressing CD63-Turbo-luciferase and CD9-Emerald green fluorescent protein reporter assessed as extracellular vesicle release by measuring reporter activation at 10 uM incubated for 48 hrs by TurboLuc luciferase based chemiluminescence assay (reference value: 0%); type: functional
[3] = system: BMDC; experiment: Vaccine adjuvant activity in Balb/c mouse BMDC assessed as induction of Ca2+ influx at 10 uM by Fura-2/8-AM dye based fluorescence analysis (reference value: 0%); type: functional
[4] = system: BMDC; experiment: Vaccine adjuvant activity in Balb/c mouse BMDC assessed as increase in IL-12 production at 10 uM incubated for 20 hrs by ELISA (reference value: 1.35 +/-0.1 ng/ml); type: functional
[5] = Cytotoxicity against Balb/c mouse BMDC assessed as cell viability at 10 uM incubated for 20 hrs by MTT assay (reference value: 100 +/-0.6%); type: toxicity, cell-based; details: BMDC (bone marrow-derived dendritic cells), read-out: Activity
[6] = system: Mus musculus; experiment: Immunostimulatory activity in BALB/c mouse assessed as increase in serum CXCL-1 level at 200 nmol, im and measured after 2 to 6 hrs by ELISA; type: functional, organism-based; details: time 2-6 hrs
[7] = system: Mus musculus; experiment: Immunostimulatory activity in BALB/c mouse assessed as increase in serum CXCL-1 level at 200 nmol, im and measured after 24 hrs by ELISA; type: functional, organism-based
[8] = system: Mus musculus; experiment: Vaccine adjuvant activity against ovalbumin-immunized BALB/c mouse assessed as induction of antigen-specific Th2 immune responses by measuring increase in anti-OVA specific IgG1 titer in serum at 200 nmol, im co-administered with ovalbumin on day 0 and day 21 and measured on day 28 by ELISA; type: functional, organism-based; details: time 29.0 day
[9] = Toxicity in ovalbumin-immunized BALB/c mouse assessed as weight loss at 200 nmol, im co-administered with ovalbumin on day 0 and day 21; type: organism-based; details: in vivo, 528 h, time 22 day
[10] = Toxicity in ovalbumin-immunized BALB/c mouse assessed as behavioural changes at 200 nmol, im co-administered with ovalbumin on day 0 and day 21; type: organism-based; details: in vivo, 528 h, time 22 day
[11] = system: Mus musculus; experiment: Immunostimulatory activity in BALB/c mouse assessed as increase in serum CCL-4 level at 1 ug, im and measured after 2 hrs by multiplex Luminex beads assay; type: functional, organism-based; details: dose 1.0 µg
[12] = system: Mus musculus; experiment: Immunostimulatory activity in BALB/c mouse assessed as increase in serum CCL-2 level at 1 ug, im and measured after 2 hrs by multiplex Luminex beads assay; type: functional, organism-based; details: dose 1.0 µg
[13] = system: Mus musculus; experiment: Immunostimulatory activity in BALB/c mouse assessed as increase in serum IL-6 level at 1 ug, im and measured after 2 hrs by multiplex Luminex beads assay; type: functional, organism-based; details: dose 1.0 µg
[14] = system: Mus musculus; experiment: Immunostimulatory activity in BALB/c mouse assessed as increase in serum CXCL-1 level at 1 ug, im and measured after 2 hrs by ELISA; type: functional, organism-based; details: dose 1.0 µg
[15] = system: Mus musculus; experiment: Immunostimulatory activity in BALB/c mouse assessed as increase in serum CXCL-10 level at 1 ug, im and measured after 6 hrs by multiplex Luminex beads assay; type: functional, organism-based; details: dose 1.0 µg
[16] = system: Mus musculus; experiment: Immunostimulatory activity in BALB/c mouse assessed as increase in serum CCL-4 level at 1 ug, im and measured after 24 hrs by multiplex Luminex beads assay; type: functional, organism-based; details: dose 1.0 µg
[17] = system: Mus musculus; experiment: Immunostimulatory activity in BALB/c mouse assessed as increase in serum CCL-2 level at 1 ug, im and measured after 24 hrs by multiplex Luminex beads assay; type: functional, organism-based; details: dose 1.0 µg
[18] = system: Mus musculus; experiment: Immunostimulatory activity in BALB/c mouse assessed as increase in serum IL-6 level at 1 ug, im and measured after 24 hrs by multiplex Luminex beads assay; type: functional, organism-based; details: dose 1.0 µg
[19] = system: Mus musculus; experiment: Immunostimulatory activity in BALB/c mouse assessed as increase in serum CXCL-1 level at 1 ug, im and measured after 24 hrs by ELISA; type: functional, organism-based; details: dose 1.0 µg

Compound	Activity [1]	Activity [2] [%]	Activity [3] [%]	Activity [4] [ng/mL]	viability at 20 h, 10 µM [5] [%]	Activity [6]	Activity [7]	Activity [8]	Activity [9]	Activity [10]	Activity [11]	Activity [12]	Activity [13]	Activity [14]	Activity [15]	Activity [16]	Activity [17]	Activity [18]	Activity [19]
Cc1sc(NS(=O)(=O)c2cccc3nsnc23)c(C(=O)OC2CCCCC2)c1C	Active	213	177.8	3.08	102	Active	inactive	Active	Non-Toxic	Non-Toxic	–	–	–	–	–	–	–	–	–
CCOC(=O)c1c(NS(=O)(=O)c2cccc3n[se]nc23)sc(C)c1C	Active	210.4	147.5	3.11	109	–	–	Active	Non-Toxic	Non-Toxic	–	–	–	–	–	–	–	–	–
CCOC(=O)c1c(NS(=O)(=O)c2cccc3ccccc23)sc(C)c1C	–	5.2	-14.1	1.37	111	–	–	–	Non-Toxic	Non-Toxic	–	–	–	–	–	–	–	–	–
CCOC(=O)c1c(NS(=O)(=O)c2cccc3nsnc23)sc(-c2ccccc2)c1C	Active	338.9	115.7	3.79	136	Active	inactive	Active	Non-Toxic	Non-Toxic	–	–	–	–	–	–	–	–	–
CCOC(=O)c1c(NS(=O)(=O)c2ccccc2)sc(C)c1C	inactive	0.7	-10.9	1.16	102	–	–	–	–	–	–	–	–	–	–	–	–	–	–
CCOC(=O)c1c(NS(=O)(=O)c2cccc3nsnc23)sc(C)c1C	Active	100	100	1.78	114	Active	inactive	–	Non-Toxic	Non-Toxic	–	–	–	–	–	–	–	–	–
Cc1sc(NS(=O)(=O)c2cccc3nsnc23)c(-c2nc(C#N)no2)c1C	inactive	1.5	-7	1.59	97.6	–	–	–	Non-Toxic	Non-Toxic	–	–	–	–	–	–	–	–	–
CCCCCCCCCCCCCC(=O)O[C@H](CCCCCCCCCCC)CC(=O)N[C@H]1[C@H](OC[C@H]2O[C@H](O)[C@H](NC(=O)C[C@H](O)CCCCCCCCCCC)[C@@H](OC(=O)C[C@H](O)CCCCCCCCCCC)[C@@H]2O)O[C@H](CO)[C@@H](OP(=O)(O)O)[C@@H]1OC(=O)C[C@@H](CCCCCCCCCCC)OC(=O)CCCCCCCCCCCCC	–	–	–	–	–	–	–	–	–	–	Active	Active	Active	Active	Active	inactive	inactive	inactive	inactive
CCOC(=O)c1c(NS(=O)(=O)c2cccc3nccnc23)sc(C)c1C	Active	113.3	122	4.12	181	–	–	Active	Non-Toxic	Non-Toxic	–	–	–	–	–	–	–	–	–
CCOC(=O)c1c(NC(=O)c2cccc3nsnc23)sc(C)c1C	–	-0.4	-5.4	1.37	59.1	Active	inactive	–	–	–	–	–	–	–	–	–	–	–	–
CCOC(=O)c1c(NS(=O)(=O)c2cccc3nsnc23)sc2c1CCNC2	–	0.1	-35.3	0.72	94.8	–	–	–	–	–	–	–	–	–	–	–	–	–	–
